This note sets out measurements from US12384758B2, “Crystalline form of LNP023” (Novartis AG, priority 2020, dated 2025).

The series is described as follows: Dynamic vapor sorption (DVS) isotherms, 0 to 95% relative humidity. It is filed as physicochemical. To be noted: 25±1.0° C. The method, then: Dynamic vapor sorption isotherms were recorded with a DVS Advantage instrument. The measurement cycle was started at ambient relative humidity (RH) of 40%. RH was then decreased to 0% in 10% steps. […] 5% steps. Finally, RH was increased to ambient relative humidity of 40% in 10% steps. The time per step was set to a minimum of 3 hours and a maximum of 6 hours. If an equilibrium condition with a constant mass change of 0.002%/min for a minimum of 5 min was reached before the maximum time for all examined samples the sequential humidity step was applied before the maximum time of 6 hours. If no equilibrium was achieved the consecutive humidity step was applied after the maximum time of 6 hours. The temperature was 25±1.0° C.
Therefore, Form HB of LNP023 hydrochloride described herein can be assigned as being non-hygroscopic.

`CCO[C@H]1CCN(Cc2c(OC)cc(C)c3[nH]ccc23)[C@H](c2ccc(C(=O)O)cc2)C1.Cl` [Form HB of LNP023 hydrochloride, 4-((2S,4S)-(4-ethoxy-1-((5-methoxy-7-methyl-1H-indol-4-yl)methyl)piperidin-2-yl))benzoic acid hydrochloride]: the “hysteresis between the sorption and desorption curve” value (DVS sorption 0% to 95% RH, desorption 95 to 0% RH) is given as “no significant hysteresis”. For the same molecule, where the note is “DVS, reference weight at 0% RH”, the “mass difference between 40 and 95% RH (DVS equilibrium mass change)” value was “less than 0.2 weight %”. Also, the “PXRD after the DVS experiment (physical stability of the form)” value (after DVS cycle 0 to 95% RH) was “remains unchanged”. Further, the hygroscopicity assignment entry (from DVS, non-hygroscopic defined in b47 as mass increase of less than 0.2% at 80% RH at 25° C.) is on record as “non-hygroscopic”.
